Experimental data published in patent US12662707B2, “MYC amplification drives resistance to pan-RAS inhibitors in pancreatic cancer” (The Trustees of Columbia University in the City of New York, priority 2024, dated 2026).

Tests used:
[1] = system: 796 human tumor cell lines; test: PRISM multiplex cell line screening; assay type: cell-based; conditions: 5 days; relative to the other cell lines of the screen
Description: The PRISM cell set consisted of 796 cell lines representing more than 45 lineages, which largely overlapped with the Cancer Cell Line Encyclopedia (CCLE) (portals.broadinstitute.org/ccle). Cell lines were grown in RPMI without phenol red, supplemented with 10% or 20% FBS for adherent and suspended lines, respectively. Parental cell lines were stably infected with a unique 24-nucleotide DNA barcode via lentiviral transduction and blasticidin selection. After selection, barcoded cell lines were expanded and subjected to quality control (mycoplasma contamination test, a SNP test for confirming cell line identity, and barcode ID confirmation). Approved cell lines were then pooled (20-25 cell lines per pool) based on doubling time similarity and frozen in assay-ready vials.
RMC-7977 was added to 384-well plates at 8-point concentration with 3-fold dilutions in triplicate. These assay-ready plates were then seeded with the thawed cell line pools. […]
Each cell line's unique barcode is located in the 3′UTR of the blasticidin resistance gene and therefore is expressed as mRNA. […] Finally, Luminex beads that recognize the specific barcode sequences in the cell set were hybridized to the PCR products and detected using a Luminex scanner which reports signal as a median fluorescent intensity (MFI). […]

[2] = system: murine Dusp6 mRNA in normal colon and skin; test: PK/PD in normal colon and skin of CDX tumor-bearing mice (Dusp6 qRT-PCR); assay type: in vivo, mouse
Description: Tumor-bearing animals were randomized and assigned into groups (n=3-10/group). Vehicle or RMC-7977 was administered via oral gavage daily at 10 mg/kg and animals were treated for 21-28 days. Studies were terminated early if tumor burden reached humane endpoint. Body weights were collected twice a week during the study. Means±s.e.m were plotted in the waterfall plots. For the single-dose pharmacokinetic/pharmacodynamic (PK/PD) study, mice were randomized and assigned into groups (n=3-6/dose/timepoint). A single dose of RMC-7977 was administered orally at 10 mg/kg, 25 mg/kg and 50 mg/kg. […]
Whole blood, tumor, colon and skin tissue concentrations of RMC-7977 were determined using liquid chromatography-tandem mass spectrometry (LC-MS/MS) methods. […] After thorough mixing and centrifugation, the supernatant was directly analyzed on a Sciex 6500+ triple quadrupole mass spectrometer equipped with an ACQUITY or Shimadzu UPLC system. […] RMC-7977 and IS (verapamil or terfenadine) were detected by positive electrospray ionization using multiple reaction monitoring (RMC-7977: m/z 865.4/706.4 or m/z 865.3/833.5; verapamil: m/z 455.2/164.9; terfenadine: m/z 472.3/436.4). The lower limit of quantification was 0.5 ng/mL or 2.0 ng/mL for blood, tumor, and other tissue. […]

SMILES: CCn1c(-c2cc(N3CCN(C4CC4)CC3)cnc2[C@H](C)OC)c2c3cc(ccc31)-c1csc(n1)C[C@H](NC(=O)[C@H]1[C@@H]3COC[C@@H]31)C(=O)N1CCC[C@H](N1)C(=O)OCC(C)(C)C2 [RMC-7977]
- sensitivity of human PDAC cell lines in PRISM screen (AUC) [1]: among the most sensitive
- fold lower EC50 in Capan-1 tumors compared to colon ([2]; normal colon): ~22 fold
- fold lower EC50 in Capan-1 tumors compared to skin ([2]; normal skin): ~8 fold
